Where two headings read alike, the source gives them in different places.
Assays:
MDA-MB-231 = experiment: Combination experiment: gemcitabine with sublethal compound 2; settings: Homo sapiens, MDA-MB-231, read-out: Dm, Gemcitabine alone
[1] = test system: MDA-MB-231, HCT116, A549 and Panc1 cell lines; experiment: Detailed growth inhibition studies, median effect dose; format: cell-based; settings: Homo sapiens, 72 h, read-out: median effect dose (Dm), growth inhibitory activity
Method: Cell were maintained in standard tissue culture media (RPMI1640, +10% fetal bovine serum, plus antibiotic) and grown in a standard humidified 5% CO2 incubator at 37° C. […] For moderate throughput screening (up to 120 drugs per experiment), cells were seeded into 96 well plates and allowed to attach overnight. The following day media was removed and replaced with fresh compound containing media. Each compound was tested against both cell lines at 3 concentrations; 1 μM, 10 μM and 50 μM, in duplicate. Cells were incubated with compound containing media for three days in a standard 5% CO2 tissue culture incubator. Cell growth was assessed after 3 days using the DNA dye binding assay, as originally described by LaBarca and Paigen. Relative growth was independently calculated for each cell line, based on DNA content from corresponding cells grown in control media plus diluent (DMSO). […] The following day media was removed and replaced with drug containing media.
Over 190 compounds were screened for their ability to inhibit growth and/or induce cell death in established cancer cell lines.

MDA-231 = experiment: Time dependence of growth inhibitory activity, MDA-231; format: cell-based; settings: Homo sapiens, MDA-MB-231
Method: (§1) The growth inhibition assay was performed in the Preclinical Drug Testing Laboratory of the Case Comprehensive Cancer Center using a standardized protocol. Cell lines (human colon cancer HCT116 and human breast cancer MDA-MB-231 cells) were maintained in standard growth media; RPMI1640+10% FBS+2 mM glutamine+100U/ml penicillin, 100 ug/ml streptomycin and shown to be negative for mycoplasma contamination using the MycoAlert™ Mycoplasma Detection kit (Lonza, Basel, Switzerland). Cell identity was verified by Short Tandem Repeat (STR) testing performed using the Promega StemElite kit, in the Genetic Resources Core Facility (GRCF) at Johns Hopkins University.
(§2) For growth inhibition assays, cells were harvested by trypsinization and seeded into 96-well tissue culture plates at 2500 cells/mL. The following day an equal volume of 2×-drug containing medium was added to each well. […] Cell growth was assessed by measuring DNA content per well using the method of Labarca and Paigen. Dye fluorescence was measured in a Perkin-Elmer 1420 Victor3 Multilabel plate reader using 355 nm excitation and 460 nm emission.

Panc1 = experiment: Time dependence of growth inhibitory activity, Panc1; format: cell-based; settings: Homo sapiens, PANC-1
HCT116 = experiment: Time dependence of growth inhibitory activity, HCT116; format: cell-based; settings: Homo sapiens, HCT-116
Method: as §1, §2

select cancer cell lines = experiment: Cellular IC50 of NSAAH library (Table 3); format: cell-based
Method: (§3) Cell were maintained in standard tissue culture media (RPMI1640, +10% fetal bovine serum, plus antibiotic) and grown in a standard humidified 5% CO2 incubator at 37° C. Cells were regularly tested using the MycoAlert detection kit (Lonza Biologics) and shown to be mycoplasma-free. Initial compound screening was performed using both MDA-MB-23 land HCT-116 cell lines. For moderate throughput screening (up to 120 drugs per experiment), cells were seeded into 96 well plates and allowed to attach overnight. The following day media was removed and replaced with fresh compound containing media. Each compound was tested against both cell lines at 3 concentrations; 1 μM, 10 μM and 50 μM, in duplicate. Cells were incubated with compound containing media for three days in a standard 5% CO2 tissue culture incubator. Cell growth was assessed after 3 days using the DNA dye binding assay, as originally described by LaBarca and Paigen. Relative growth was independently calculated for each cell line, based on DNA content from corresponding cells grown in control media plus diluent (DMSO). Additional growth inhibition experiments utilized either the DNA binding assay or the Promega CellTiter 96® (MTT reduction) assay, with similar results. For detailed growth inhibition assays, cells (1500-2500 depending on the growth characteristics of the cell line) were seeded in standard 96 well tissue culture plates and allowed to attach overnight. The following day media was removed and replaced with drug containing media. Each dose group consisted of 5 replicate wells, and results are reported a Relative Growth, calculated as DNA or MTT reduction per well, divided by the signal from untreated cells, both harvested 3 days after drug administration.

[2] = test system: normal mobilized peripheral blood progenitor cells; experiment: Blood progenitor colony forming unit (CFU) assay; format: cell-based, human; settings: 14 days
Method: The CFU assay was performed in the Hematopoietic Biorepository and Cellular Therapy Core Facility of the Case Comprehensive Cancer Center using a standardized protocol.
Briefly, mobilized peripheral blood mononuclear cells were collected from healthy donors by apheresis after Neupogen stimulation under University Hospitals IRB Protocol #09-90-195. Excess discarded cells were diluted to 1(10^6) cells/mL in RPMI1640+15% fetal bovine serum, 100 U/mL penicillin, 100 μg/mL streptomycin and 50.4 units/ml GM-CSF. Drug solution was added to the cell suspension and 9× volume of complete methylcellulose (Methocult H4434+50 μM hemin.). The methylcellulose/cell suspension was aliquoted into triplicate 35-mm gridded tissue culture plates and incubated in a humidified 5% CO2 incubator at 37° C. for 14 days. Plates were counted visually and clusters of >50 cells were scored as surviving colonies.

[3] = test system: MDA-MB-231 and HCT-116 cell lines; experiment: Growth inhibition screening assay (In Cell IC50); format: cell-based, human; settings: Homo sapiens, 72 h; 3 days with compound
Method: as §3

[4] = Metal chelation by UV spectroscopy titration, Mg2+; format: physicochemical; settings: 100 μM ligand, 10 mM ammonium acetate pH 7.0, metal 100 μM to 1 mM
Description: There have been multiple reports of small molecule agents inhibiting RR through the scavenging of free radicals that are required for the reduction of nucleotide diphosphates. Nitric oxide and hydroxyurea (that quench the tyrosyl free radicals), and iron chelating small molecules such as desferrioxamine (that irreversibly chelate to Fe-(II) that is essential for -housing the free radicals) are a few examples. […] Therefore to test this hypothesis, the propensity of NSAAH-E-3A to bind to Mg^2+ and Fe^2+ (both present in the inhibition assay previously described) was determined by UV spectroscopy. In 10 mM ammonium acetate buffer (pH 7.0), a 100 μM solution of NSAAH-E-3A was titrated against FeCl2.6H2O and MgCl2.6H2O idependently at varying concentrations of metal ranging from 100 μM to 1 mM. The stoichiometry of NSAAH-E-3A : M^2+ tested were 1:1, 1:2, 1:3, 1:4, 1:5, 1:6, 1:7, 1:8, 1:9, and 1:10. A scanning UV […] spectrum was recorded between 200-800 nm at each concentration. Noticeable changes occurred -when NSAAH-E-3A was subjected to a titration with FeCl2.6H2O at concentrations of metal ranging from 600 μM to 1 mM. […] Similarly, a titration experiment was carried against Mg^2+ salt at concentrations of metal ranging from 100 μM to 1 mM at stoichiometry of 1:1, 1:2, 1:3, 1:4, 1:5, 1:6, 1:7, 1:8, 1:9, and 1:10.

Compound | IC50 (MDA-MB-231) | IC50 ([1]; set of four cell lines, 3 days) | IC50 (MDA-231; MDA-231, Drug Exposure 2 hr) | IC50 (MDA-231; MDA-231, Drug Exposure 6 hr) | IC50 (MDA-231; MDA-231, Drug Exposure 24 hr) | IC50 (MDA-231; MDA-231, Drug Exposure 72 hr) | IC50 (Panc1; Panc1, Drug Exposure 2 hr) | IC50 (Panc1; Panc1, Drug Exposure 6 hr) | IC50 (Panc1; Panc1, Drug Exposure 24 hr) | IC50 (Panc1; Panc1, Drug Exposure 72 hr) | IC50 (HCT116; HCT116, Drug Exposure 2 hr) | IC50 (HCT116; HCT116, Drug Exposure 6 hr) | IC50 (HCT116; HCT116, Drug Exposure 24 hr) | IC50 (HCT116; HCT116, Drug Exposure 72 hr) | IC50 (select cancer cell lines) | cytotoxicity against normal blood progenitor cells [2] | IC50 [3] | IC50 [1] | ligand:Mg^2+ stoichiometry at which the UV spectrum shows binding [4]
Nc1ccn([C@@H]2O[C@H](CO)[C@@H](O)C2(F)F)c(=O)n1 [Gemcitabine, reference compound] | 0.92 µM | 0.5 to 1 µM | 1.93 µM | 1.54 µM | 0.274 µM | 0.1 µM | 0.68 µM | 0.406 µM | 0.084 µM | 0.046 µM | 0.487 µM | 0.343 µM | 0.058 µM | 0.03 µM | – | – | – | – | –
O=C(N/N=C/c1c(O)ccc2ccccc12)c1ccccc1O [compound 3, (E)-2-hydroxy-N′-((2-hydroxynaphthalenyl)methylene) benzohydrazide] | – | – | > 10 µM | > 10 µM | 0.658 µM | 0.498 µM | > 10 µM | > 10 µM | 0.898 µM | 0.442 µM | > 10 µM | > 10 µM | 0.572 µM | 0.221 µM | 0.000225 µM | little measurable cytotoxicity | 0.38 µM | 0.5 to 1 µM | no noticeable change
